The text below walks through data of patent US6383762B1, “Methods of obtaining compounds that interact with a human serotonin (5-HT2) receptor” (Synaptic Pharmaceutical Corporation, priority 1989, dated 2002).

Test [1] deals with T1, human 5-HT2 receptor (Homo sapiens, UniProt P28223). Description: Radioligand binding to transiently transfected Cos-7 cell membranes. The following applies: transiently transfected Cos-7 cells.
The target of test [2] is T1, human 5-HT2 receptor. As to the kind of experiment: Saturation analysis of 3H-Ketanserin binding to stably transfected Ltk- cells. Set-up: Clone 6B contained the entire coding region for a 5-HT2 receptor; expressed in transfected cells. As to the method: (§1) The total reaction volume was 0.25 ml.
(§2) Subsequent to analysis in transiently transfected cells, the 5-HT2 clone was expressed as a stable transfectant in mouse Ltk^− cells. Further characterization was done on these cells as described above.
(§3) Full saturation analysis was performed on stable cell lines expressing the gene. […] The binding constants were evaluated by computer-assisted nonlinear regression using Accufit (Lundon Software, Chagrin Falls, Ohio). […] Further characterization was accomplished by performing competition experiments for a series of drugs. Analysis of the competition data was accomplished using the computer-assisted nonlinear regression program Accucomp.

Test [3] has as its target T2, 5-HT2 receptor in human cortical membranes (Homo sapiens, UniProt P28223).
T2 construct: the 5-HT2 receptor in human cortical membranes; host or cells: human cortical membranes
The following applies: human cortex; footnote 1 Lyon et al. 1987, footnote 2 Hoyer et al. 1986; cited from earlier work.

For test [4], the target named is T3, cloned human 5-HT2 receptor (Homo sapiens, UniProt P28223).
T3 construct: Clone 6B contained the entire coding region for a 5-HT2 receptor; expressed in transfected cells
T3 sequence (P28223 whole entry): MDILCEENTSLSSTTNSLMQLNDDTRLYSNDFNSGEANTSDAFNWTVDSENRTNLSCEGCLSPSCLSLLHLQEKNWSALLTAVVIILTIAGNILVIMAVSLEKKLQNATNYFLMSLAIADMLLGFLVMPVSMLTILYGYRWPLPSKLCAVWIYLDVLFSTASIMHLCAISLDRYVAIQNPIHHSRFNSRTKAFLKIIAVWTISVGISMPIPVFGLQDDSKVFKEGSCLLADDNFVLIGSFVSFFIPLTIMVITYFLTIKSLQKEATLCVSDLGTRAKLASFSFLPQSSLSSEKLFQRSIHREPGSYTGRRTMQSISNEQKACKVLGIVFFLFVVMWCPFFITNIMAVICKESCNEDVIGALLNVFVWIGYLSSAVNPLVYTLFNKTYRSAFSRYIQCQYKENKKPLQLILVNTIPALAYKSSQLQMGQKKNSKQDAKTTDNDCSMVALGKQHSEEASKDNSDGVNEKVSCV
As to the kind of experiment: Competition for 3H-Ketanserin binding, cloned human 5-HT2 receptor in stably transfected Ltk- cell membranes. The following applies: cloned human 5-HT2 receptor expressed in Ltk- cells; 3H-Ketanserin radioligand. How it is done: as §1, §2
Data were analyzed by computer-assisted analysis (Accufit Competition; Lundon Software; Chagrin Falls, Ohio).
as §3

Test [5] addresses T4, 5-HT2 receptor in rat cortical membranes (Rattus norvegicus, UniProt P14842).
T4 construct: rather than in rat cortical membranes; host or cells: rat cortical membranes
The following applies: rat cortex; Hoyer et al. 1986; cited from earlier work.

T1 sequence (P28223 whole entry): as above
T2 sequence (P28223 whole entry): as above
T4 sequence (P14842 whole entry): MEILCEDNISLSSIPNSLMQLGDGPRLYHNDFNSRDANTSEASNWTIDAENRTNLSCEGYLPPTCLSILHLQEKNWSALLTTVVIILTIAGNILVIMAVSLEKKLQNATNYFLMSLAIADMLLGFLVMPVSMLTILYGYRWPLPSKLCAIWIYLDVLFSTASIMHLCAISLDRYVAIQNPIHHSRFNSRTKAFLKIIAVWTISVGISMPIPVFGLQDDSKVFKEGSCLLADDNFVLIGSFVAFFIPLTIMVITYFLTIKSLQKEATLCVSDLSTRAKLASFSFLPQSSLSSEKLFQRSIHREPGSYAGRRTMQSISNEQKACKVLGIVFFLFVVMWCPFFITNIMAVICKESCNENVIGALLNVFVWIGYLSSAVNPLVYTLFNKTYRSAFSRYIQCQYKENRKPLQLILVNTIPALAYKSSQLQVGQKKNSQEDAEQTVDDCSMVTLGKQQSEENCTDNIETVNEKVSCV

Regarding `[3H]C([3H])(N1CCC(C(=O)c2ccc(F)cc2)CC1)C([3H])([3H])n1c(=O)[nH]c2ccccc2c1=O` [^3H-Ketanserin], at human 5-HT2 receptor [1], the “binding affinity in words” value is recorded as “high affinity” and the estimated site density is recorded as 0.95-1.6 pm/mg protein. At human 5-HT2 receptor [2] (FIG. 4 experiment, stably transfected Ltk- cells), this molecule returned a Bmax of 0.602 pmole/mg protein. Besides, the Bmax at human 5-HT2 receptor [2] (Ltk- cells transfected with pMO5-6B) stood at 0.602±0.07 pm/mg protein.

For the molecule `CN1C[C@@H](NS(=O)(=O)N(C)C)C[C@@H]2c3cccc4c3c(cn4C)C[C@H]21` [MESULERGINE], the Ki in test [3] is 158 nM; in test [4], 146 ± 5 nM.

Regarding `NCCc1c[nH]c2ccc(C(N)=O)cc12` [5-CT], the Ki in test [5] is 20000 nM; in test [3], 813 nM; in test [4], 3030 nM.

A word on the Ki: it is a dissociation constant, usually derived from enzyme kinetics or from competition with a known ligand.
